Source: patent US10815238B2, “Antimicrobial compounds and methods of making and using the same” (BIOVERSYS AG, priority 2013, dated 2020)

These compounds were tested on Eschericia coli (E. coli) strain ATCC25922 (assay: Standard microdilution assay, MIC against E. coli ATCC25922). Details: Escherichia coli; E. coli strain ATCC25922, standard microdilution assay; cutoff 16 micrograms/mL; read-out: MIC E. Coli.
Assay type: cell-based
Procedure, shortened: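 MIC determined by broth microdilution following CLSI protocols, with reference strains run in parallel for quality control. Activity scored +/− at a cutoff of 16 micrograms/mL.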

| MIC | SMILES |
| --- | --- |
| < 16 µg/mL | C[C@H](N)CCCc1cc(Cl)c(F)c(-c2cc3cn(-c4ccc(C[C@H](N)CCCNC(=N)N)cc4)c(=O)nc3[nH]2)c1 [Compound 230] |
| < 16 µg/mL | C[C@H](N)CCCc1cc(Cl)c(F)c(-c2cc3cn(-c4ccc([C@@H](N)C(=O)NCCNC(=N)N)cc4)c(=O)nc3[nH]2)c1 [Compound 256] |
| < 16 µg/mL | C[C@H](N)CCCc1cc(Cl)c(F)c(-c2[nH]c3nc(=O)n(-c4ccc([C@H](C)NCCCNC(=N)N)cc4)cc3c2Cl)c1 [Compound 290] |
| < 16 µg/mL | C=CC[C@H](CCNCc1ccc(-n2cc3cc(-c4cc(CCC[C@H](C)N)cc(Cl)c4F)[nH]c3nc2=O)cc1)NC(=N)N [Compound 207] |
| < 16 µg/mL | C[C@H](N)CCCc1cc(-c2cc3cn(-c4ccc([C@H](N)CCCCNC(=N)N)cc4)c(=O)nc3[nH]2)cc(C(F)(F)F)c1 [Compound 235] |
| < 16 µg/mL | C=CC[C@@H](N)CCNCc1ccc(-n2cc3cc(-c4cc(CCC[C@H](C)N)cc(Cl)c4F)[nH]c3nc2=O)cc1 [Compound 206] |
| < 16 µg/mL | C[C@H](N)CCCc1cc(OC(F)(F)F)c(F)c(-c2cc3cn(-c4ccc([C@H](C)NCC[C@H](Cn5ccnn5)NC(=N)N)cc4)c(=O)nc3[nH]2)c1 [Compound 294] |
| < 16 µg/mL | C=C[C@H](CCN[C@@H](C)c1ccc(-n2cc3cc(-c4cc(CCC[C@H](C)N)cc(OC(F)(F)F)c4F)[nH]c3nc2=O)cc1)NC(=N)N [Compound 237] |
| < 16 µg/mL | C[C@H](N)CCCc1cc(-c2cc3cn(-c4ccc([C@H](C)NCCCN(C)C(=N)N)cc4)c(=O)nc3[nH]2)cc(C(F)(F)F)c1 [Compound 211] |
| < 16 µg/mL | C[C@H](N)CCCc1cc(Cl)c(F)c(-c2cn3cc(-c4ccc([C@H](C)NCCCNC(=N)N)cc4)c(=O)nc3[nH]2)c1 [Compound 302] |
| < 16 µg/mL | C=CC[C@@H](CCN[C@@H](C)c1ccc(-n2cc3cc(-c4cc(CCC[C@H](C)N)cc(Cl)c4F)[nH]c3nc2=O)cc1)NC(=N)N [Compound 252] |
| < 16 µg/mL | C[C@H](N)CCCc1cc(OC(F)(F)F)c(F)c(-c2cc3cn(-c4ccc([C@@H](N)C(=O)NCCNC(=N)N)cc4)c(=O)nc3[nH]2)c1 [Compound 257] |
| < 16 µg/mL | C[C@H](N)CCCc1cc(-c2cc3cn(-c4ccc([C@H](C)N[C@H](C)CCNC(=N)N)cc4)c(=O)nc3[nH]2)cc(C(F)(F)F)c1 [Compound 226] |
| < 16 µg/mL | CC(=O)Oc1ccccc1C(=O)OC[C@H](N)CCCc1cc(Cl)c(F)c(-c2cc3cn(-c4ccc([C@H](C)NCCCNC(=N)N)cc4)c(=O)nc3[nH]2)c1 [Compound 316] |
| < 16 µg/mL | C[C@H](N)CCCc1cc(Cl)c(F)c(-c2cc3cn(-c4ccc([C@H](C)NCC[C@H](CCCO)NC(=N)N)cc4)c(=O)nc3[nH]2)c1 [Compound 275] |
| < 16 µg/mL | CC[C@H](NCCCNC(=N)N)c1ccc(-n2cc3cc(-c4cc(CCC[C@H](C)N)cc(OC(F)(F)F)c4F)[nH]c3nc2=O)cc1 [Compound 227] |
| < 16 µg/mL | C[C@H](N)CCCc1cc(OC(F)(F)F)c(F)c(-c2cc3cn(-c4ccc(CNCC[C@H](CN)NC(=N)N)cc4)c(=O)nc3[nH]2)c1 [Compound 311] |
| < 16 µg/mL | C[C@H](N)CCCc1cc(Cl)c(F)c(-c2cc3cn(-c4ccc([C@@H]5CC[C@@H](CCNC(=N)N)N5)cc4)c(=O)nc3[nH]2)c1 [Compound 285] |
| < 16 µg/mL | C[C@H](N)CCCc1cc(Cl)c(F)c(-c2cc3cn(-c4ccc(CNCC[C@H](N)CO)cc4)c(=O)nc3[nH]2)c1 [Compound 192] |
| < 16 µg/mL | C[C@H](N)CCCc1cc(OC(F)(F)F)c(F)c(-c2cc3cn(-c4ccc([C@H](C)NCC[C@@H](CCO)NC(=N)N)cc4)c(=O)nc3[nH]2)c1 [Compound 248] |

Continued, compound first:

| SMILES | MIC |
| --- | --- |
| CC(CCNCc1ccc(-n2cc3cc(-c4cc(CCC[C@H](C)N)cc(Cl)c4F)[nH]c3nc2=O)cc1)NC(=N)N (stereo partly shown) [Compound 186] | < 16 µg/mL |
| C=C[C@H](N)CCNCc1ccc(-n2cc3cc(-c4cc(CCC[C@H](C)N)cc(Cl)c4F)[nH]c3nc2=O)cc1 [Compound 143] | < 16 µg/mL |
| C[C@H](N)CCCc1cc(SC(F)(F)F)cc(-c2cc3cn(-c4ccc([C@H](Cn5ccnn5)NCCCNC(=N)N)cc4)c(=O)nc3[nH]2)c1 [Compound 88] | < 16 µg/mL |
| C[C@H](N)CCCc1cc(Cl)c(F)c(-c2cc3cn(-c4ccc([C@@H](CCN)NCCCNC(=N)N)cc4)c(=O)nc3[nH]2)c1 [Compound 2] | < 16 µg/mL |
| C[C@H](N)CCCc1cc(Cl)c(F)c(-c2cc3cn(-c4ccc(CNCC[C@@H](N)CCO)cc4)c(=O)nc3[nH]2)c1 [Compound 184] | < 16 µg/mL |
| CNCCNCc1ccc(-n2cc3cc[nH]c3nc2=O)cc1 [Compound 142] | > 16 µg/mL |
| C[C@H](N)CCCc1cc(Cl)c(F)c(-c2cc3cn(-c4ccc([C@H](CC5=CCCN(C)C5)NCCCNC(=N)N)cc4)c(=O)nc3[nH]2)c1 [Compound 105] | < 16 µg/mL |
| C[C@H](N)CCCc1cc(Cl)c(F)c(-c2cc3cn(-c4ccc(CNCC[C@@H](C)NC(=N)N)cc4)c(=O)nc3[nH]2)c1 [Compound 188] | < 16 µg/mL |
| COC(=O)CCNCc1ccc(-n2cc3cc(-c4cc(CCC[C@H](C)N)cc(SC(F)(F)F)c4)[nH]c3nc2=O)cc1 [Compound 141] | > 16 µg/mL |
| C[C@H](N)CCCc1cc(Cl)c(F)c(-c2cc3cn(-c4cccc(CNCCCNC(=N)N)c4)c(=O)nc3[nH]2)c1 [Compound 90] | < 16 µg/mL |
| C[C@H](N)CCCc1cc(SC(F)(F)F)cc(-c2cc3cn(-c4ccc([C@@H](N)CCNc5nccs5)cc4)c(=O)nc3[nH]2)c1 [Compound 157] | > 16 µg/mL |
| C[C@H](N)CCCc1cc(Cl)c(F)c(-c2cc3cn(-c4ccc([C@H](CCO)NCCCNC(=N)N)cc4)c(=O)nc3[nH]2)c1 [Compound 15] | < 16 µg/mL |
| C[C@H](N)CCCc1cc(Cl)c(F)c(-c2cc3cn(-c4ccc(CNCCC(C)(C)N)cc4)c(=O)nc3[nH]2)c1 [Compound 175] | < 16 µg/mL |
| C[C@H](N)CCCc1cc(Cl)c(F)c(-c2cc3cn(-c4ccc([C@H](CCNc5nccs5)NCCCNC(=N)N)cc4)c(=O)nc3[nH]2)c1 [Compound 85] | < 16 µg/mL |
| O=c1nc2[nH]ccc2cn1-c1ccc(CNCc2cccnc2)cc1 [Compound 109] | > 16 µg/mL |
| COc1ccc(Cn2cc(CNCc3ccc(-n4cc5cc(-c6cc(CCC[C@H](C)N)cc(Cl)c6F)[nH]c5nc4=O)cc3)nn2)cc1 [Compound 120] | > 16 µg/mL |
| C[C@H](N)CCCc1cc(Cl)c(F)c(-c2cc3cn(-c4ccc(CNCC[C@@H](C)N)cc4)c(=O)nc3[nH]2)c1 [Compound 187] | < 16 µg/mL |
| C[C@H](N)CCCc1cc(Cl)c(F)c(-c2cc3cn(-c4ccc([C@@H](NCCCNC(=N)N)C(=O)N5CCNCC5)cc4)c(=O)nc3[nH]2)c1 [Compound 12] | < 16 µg/mL |
| C[C@H](NCCCNC(=N)N)c1ccc(-n2cc3cc(-c4cc(CCC[C@@H](N)COC(=O)NCc5ccccc5)cc(Cl)c4F)[nH]c3nc2=O)cc1 [Compound 306] | < 16 µg/mL |
| C[C@H](N)CCCc1cc(Cl)c(F)c(-c2cc3cn(-c4ccc(CNCCC5(N)CN(C(=N)N)C5)cc4)c(=O)nc3[nH]2)c1 [Compound 190] | < 16 µg/mL |
| C[C@H](N)CC[C@@H](O)c1cc(SC(F)(F)F)cc(-c2cc3cn(-c4ccc([C@H](C)NCCCNC(=N)N)cc4)c(=O)nc3[nH]2)c1 [Compound 65] | < 16 µg/mL |
| C[C@H](N)CCCc1cc(Cl)c(F)c(-c2cc3cn(-c4ccc([C@@H](CF)NCCCNC(=N)N)cc4)c(=O)nc3[nH]2)c1 [Compound 95] | < 16 µg/mL |
| C[C@H](N)CCCc1cc(SC(F)(F)F)cc(-c2cc3cn(-c4ccc(CNCC#N)cc4)c(=O)nc3[nH]2)c1 [Compound 170] | > 16 µg/mL |
